# Test results from patent US20080299076A1, “Compunds and compositions that cause non-apoptotic cell death and uses thereof” (priority 2006, published 2008).
# Tests used:
# [1] = system: BJ-TERT/LT/ST/RAS^V12 cells; assay: ATP detection; assay type: cell-based, human; conditions: erastin 20 μg/mL for 12 hours
# Procedure: Cells were seeded in polystyrene 100×20 mm dishes (Falcon/#353003) in 10 mL of media. Three million cells were seeded in each dish for staurosporine (STS) and erastin treatment. Two million cells were seeded in each dish for no treatment and hydrogen peroxide treatment. Cells were treated with staurosporine (1 μM) for 12 hours, with H2O2 (16 mM) for 1.5 hours and erastin (20 μg/mL) for 12 hours. After the incubation, we counted cells using a CiCell analyzer (Beckman). 100,000 cells from each treatment were collected and washed twice in Hank's Salt Solution (10 ml). Next, we suspended cells in 200 μl of Nucleotide Releasing Buffer (BioVision/K254-200 ApoSensor Cell Viability Assay Kit) and incubated at room temperature for 10 minutes. To 10 μl of the above sample, we added 1 μl of ATP Minitoring Enzyme (BioVision/K254-200 ApoSensor Cell Viability Assay Kit) and read the ATP levels of the samples using a luminometer.
# ATP levels were measured in BJERL cells treated with nothing (NT), treated with 1 μM of Staurosporine (STS) for 12 hours, with 16 mM of hydrogen peroxide for 1.5 hours and 20 μg/mL of erastin for 12 hours. ATP levels were normalized by number of viable cells.
# [2] = Stability in human liver microsomes; assay type: in vitro ADME; conditions: after 1 hr
# Procedure: The stability of erastin in mouse and human liver microsomes and in mouse and human plasma was assessed. In both human and mouse liver microsomes, after 1 hr, ˜30% of erastin was converted to its primary metabolite (the O-de-ethylated product). In both human and mouse plasma, only ˜10% of erastin was lost after five hours. Thus, erastin has sufficient metabolic and plasma stability to be tested in vivo in mice.
# [3] = system: BJ-TERT/LT/ST/RAS^V12 cells; assay: Annexin V staining; assay type: cell-based, human; conditions: erastin 9 μM
# Procedure: The percentage of cells in the indicated Ml region were 6%, 6%, and 38% in untreated, erastin-treated (9 μM), and camptothecin-treated (1 μM), respectively.
# [4] = system: BJ-TERT/LT/ST/RAS^V12 cells; assay: Cell death, viable cells counted using a hemacytometer; assay type: cell-based, human; conditions: 13 μM erastin A1, 23 μM antimycin, 126 μM 2-methoxyestradiol or the combinations
# cytochrome c = assay: Cytochrome c release from mitochondria; assay type: cell-based, human; conditions: BJ-TERT/LT/ST/RAS^V12 cells; staurosporine 1 μM or erastin 20 μg/mL, 6 h
# Procedure: BJ-TERT/LT/ST/RAS^V12 cells were seeded in polystyrene 100×20 mm dishes in 10 ml media. After overnight incubation at 37° C. with 5% CO2, the cells were treated with nothing (NT), staurosporine (ST, 1 μM) or erastin (20 μg/mL) for 6 h, washed with 10 mL ice-cold PBS and lysed by passage through a 25-gauge needle (five strokes). Cell lysates were centrifuged at 1850 rpm for 5 min at 4° C. to remove the nuclear fraction. Mitochondria were removed from the soluble cytosolic fraction by pelleting at 10,000 rpm. Supernatant and mitochondrial pellets were solubilized in SDS-PAGE loading buffer and analyzed by western blot using anti-cytochrome c and pan-VDAC antibodies and IR-dye-linked secondary antibodies. VDACs are mitochondrial proteins, so their absence in the cytosolic lane indicates effective separation of cytosol (C) from mitochondria (M). Fluorescence was detected on a LI-COR Odyssey infrared scanner.
# For the cytochrome c release assay, cells were washed with 10 mL of ice-cold PBS, suspended in 120 μL of buffer (300 mM sucrose, 0.1% BSA, 10 mM HEPES, pH 7.5, 10 mM KCl, 1.5 mM MgCl2, 1 mM EGTA, 1 mM EDTA, 1 mM dithiothreitol, 2 mM phenylmethanesulfonyl fluoride and 1 protease inhibitor tablet (Roche)) and incubated on ice for 15 min. […] Supernatant and mitochondrial pellets were solubilized in SDS-PAGE loading buffer and analyzed by western blotting.
# [5] = Toxicity after injection in mice; assay type: in vivo
# Procedure: In certain embodiments, erastin was formulated at 150 mg/kg in 10% DMSO, 20% Tween 80, 70% saline and 0.5 mL of this formulation was injected via IV twice per day for four days in 3 nude mice.
# BJELR cells = assay: Erastin sensitivity after upregulation of VDAC proteins by nucleofection; assay type: cell-based, human
# Description: Quantitative western blot showing the ratio of VDACs (top band, green) to eif4E (bottom band, red) (e). […] Green, untransfected BJELR cells; blue, mock nucleofected BJELR cells; red, VDAC2/3-nucleofected BJELR cells (f).
# In certain aspects, the invention provides that erastin acts by a gain-of-function mechanism and that cells with more VDAC proteins are more sensitive to erastin. A gain-of-function mechanism operates in cells which have increased levels of topoisomerase I and are thus more sensitive to camptothecin^149. […] In other embodiments, cell lines can be stably transfected with vectors expressing VDAC1, 2, and/or 3. Thus, increased VDAC expression leads to erastin sensitivity which is consistent with a gain of function mechanism. Furthermore, a knockdown of VDACs causes erastin resistance.
# tumor cell lines = assay: Dose-response of panel of tumor cell lines to erastin; assay type: cell-based
# Procedure: In certain aspects, the invention provides that erastin is lethal to tumor cells with activating mutations in proteins downstream of RAS proteins. Dose-response of 30 tumor cell lines to erastin was measured, and at least 50% inhibition of cell viability in 19 of the 30 tumor cell lines was formed. Numerous sarcoma-derived tumor cell lines were sensitive to erastin, consistent with the fact that erastin was discovered in an engineered tumor cell line created from human fibroblasts. Non-limiting examples include, HT1080 fibrosarcoma cells. HT1080 fibrosarcoma cells, which have a known activating mutation in NRAS, (Plattner, R. et al. Differential contribution of the ERK and JNK mitogen-activated protein kinase cascades to Ras transformation of HT1080 fibrosarcoma and DLD-1 colon carcinoma cells. Oncogene. 18: 1807-17 (1999)), were quite sensitive to erastin. In order to determine whether RAS-activated signaling was modulated in cell lines that respond to erastin, the phosphorylation status of ERK1/2 in 12 sarcoma cell lines with a range of sensitivities to erastin was evaluated. In certain aspects, the invention provides a non-zero correlation, such as for example, a correlation coefficient of 0.41, between ERK1/2 phosphorylation status and erastin sensitivity in these cell lines. […]
smiles,measurement,setting,value
"CCOc1ccccc1-n1c(C(C)N2CCN(C(=O)COc3ccc(Cl)cc3)CC2)nc2ccccc2c1=O (stereo not shown) [erastin, 2-(1-{4-[2-(4-Chloro-phenoxy)-acetyl]-piperazin-1-yl}-ethyl)-3-(2-ethoxy-phenyl)-3H-quinazolin-4-one]",ATP levels per viable cell,[1],decreased modestly
same,converted to primary metabolite (O-de-ethylated product),[2],~30%
same,percentage of cells in M1 region (Annexin V staining),[3],6%
same,Cell death (%),[4],100%
same,Cytochrome c release from mitochondria,cytochrome c,does not induce cytochrome c release
same,Gross toxicity (body weight and behavior),"[5]; 150 mg/kg in 10% DMSO, 20% Tween 80, 70% saline, IV twice per day for four days, nude mice",No gross toxicity
same,Overt toxicity,[5]; single dose IP in 100% DMSO up to 450 mg/kg,no overt toxicity
same,Increase in sensitivity to erastin,BJELR cells,about two to three-fold
same,number of cell lines with at least 50% inhibition of viability,tumor cell lines; of 29 tumor cell lines,18
same,number of cell lines with at least 50% inhibition of cell viability,tumor cell lines; of 30 tumor cell lines,19
